# Results published in patent publication US12486334B2, “Chemically controlled monoclonal antibody target engagement” (The Regents of the University of California, priority 2019, dated 2025).
# Assays:
# [1] = system: human H358 (G12C+) cells xenografted tumors; experiment: H358 xenograft murine model, P1A4 IgG staining of harvested tumors by flow cytometry; assay type: in vivo, Mice
# Procedure: In order to test whether ARS-1620 is accessible and targetable on the surface of treated cells in more complex systems, an H358 xenograft murine model was utilized. Mice were xenografted with human H358 (G12C+) cells and treated with either DMSO (placebo), ARS-1620 (1× at 200 mg/kg, or 3× at 200 mg/kg daily), or AMG-510 (1× at 100 mg/kg).
# KRas G12C = KRas G12C (Homo sapiens, UniProt P01116, G12C); conditions: Visscher et al. 2016; cited from earlier work
# [2] = system: colocalization of ARS-1620 and MHC in a KRas G12C cell line; experiment: Proximity ligation assay (PLA); assay type: cell-based; conditions: not with atropisomer or DMSO
# From the text: FIG. 5 is a schematic of the proximity ligation assay (PLA) for detecting colocalization of two antigens. […] Secondary antibodies are directed against the Fc region of the human or murine antibodies, and are attached to complimentary oligos used to assemble a complementary oligo for rolling circle amplification (RCA). Amplification only occurs if the two antigens are colocalized, and amplified oligos are detected with complimentary, fluorogenic oligos.
# (§1) To test whether the cell surface exposed ARS-1620 was pMHC associated, a proximity ligation assay was used in which fluorescent signal is indicative of colocalization of ARS-1620 and MHC (FIG. 5). […] To test whether this colocalization was due to direct covalent reaction with MHC molecules already on the cell surface or due to traditional loading of intracellular MHCs with covalently modified intracellular peptides, a covalent capture ELISA was used to detect ARS-1620 labeled peptides eluted from cells by mild acid elution. A short acid treatment dissociates peptides from the pMHC on living cells, allowing capture of the presented peptides in the acidic buffer supernatant and subsequent covalent immobilization via their N-terminus for ELISA. […] The eluted peptides and peptides obtained from MHC immunoprecipitation are analyzed by mass spectrometry to precisely identify haptenized peptide sequences.
# [3] = system: ARS-1620 labeled peptides eluted from KRas G12C cells; experiment: Covalent capture ELISA of MHC eluted peptides (mild acid elution); assay type: cell-based; conditions: ARS-1620 treated KRas G12C samples, stained with P1A4 IgG
# From the text: as §1
# [4] = system: T-cells of PBMCs co-incubated with MiaPaca-2 (KRas G12C) cells; experiment: T cell activation (CD3/CD69) by flow cytometry after 72 hr co-incubation; assay type: cell-based; conditions: ARS1620, No Ab
# From the text: MiaPaca-2 (KRas G12C) cells were pulsed with either DMSO or ARS-1620 in order to label proteins without exerting a direct pharmacological effect on the health of the cells. […] Following the 72 hr treatment, cells were stained for T-cell receptors (CD3) and T-cell activation (CD69) and analyzed by flow cytometry.
# H358 (G12C+) cell lysate = experiment: Western blot of cell lysate with P1A4 IgG; assay type: binding; conditions: treated H358 (G12C+) cells
# [5] = system: KRas G12C cell lines (H358, MiaPaca-2, SW1573); experiment: Flow cytometry of cell-surface accessible ARS-1620 with P1A4; assay type: cell-based; conditions: several KRas G12C cell lines compared to a wild type KRas cell line
# From the text: Low background staining observed in the presence of DMSO treatment confirms that the interaction is ARS-1620 dependent.
# wild type KRas = wild type KRas (Homo sapiens, UniProt P01116); conditions: Visscher et al. 2016; cited from earlier work
Compound,P1A4 IgG staining of xenografted tumor cells ([1]; AMG-510 1× at 100 mg/kg),specificity for KRas G12C over other cellular proteins (KRas G12C),P1A4 IgG staining of xenografted tumor cells ([1]; ARS-1620 1× at 200 mg/kg or 3× at 200 mg/kg daily),fluorescent signal (colocalization of ARS-1620 with MHC) [2],ARS-1620 haptenized peptides in MHC eluted peptides [3],% CD3 + CD69+ [4] [%],off-targets of ARS-1620 detected by western blot with P1A4 (H358 (G12C+) cell lysate),increase in cell surface ARS-1620 [5] [×],binding to wild type KRas lacking acquired cysteine (wild type KRas)
C=CC(=O)N1CCN(c2nc(=O)n(-c3c(C)ccnc3C(C)C)c3nc(-c4c(O)cccc4F)c(F)cc23)[C@@H](C)C1 [AMG-510],no P1A4 staining,–,–,–,–,–,–,–,–
"C=CC(=O)N1CCN(c2ncnc3c(F)c(-c4c(O)cccc4F)c(Cl)cc23)CC1 (atropisomer, axis not shown) [ARS-1620]",–,high specificity,P1A4+ cell population emerged,detectable,readily detected,2.42,additional off-targets,10,no appreciable binding
